# Results as given in patent US20250340574A1, “MODULATORS OF CYSTIC FIBROSIS TRANSMEMBRANE CONDUCTANCE REGULATOR” (Vertex Pharmaceuticals Incorporated, priority 2022, published 2025).
# pEC50: −log10 of the molar value. Where two headings read alike, the source gives them in different places.
# How the values were obtained:
# [1] = target: T1, CFTR (F508del/MF-HBE cells) (Homo sapiens, UniProt P13569, DEL508-508); assay: Ussing chamber assay of CFTR-mediated short-circuit currents, Assay D (single concentration of 1 μM); format: cell-based; conditions: with 44 nM potentiator and 18 μM Tezacaftor, 18-24 hours, 20% human serum
# T1 construct: human bronchial epithelial (HBE) cells derived from CF subjects heterozygous for F508del and a minimal function CFTR mutation (F508del/MF-HBE); endogenous in cells; host or cells: Primary human bronchial epithelial cells from CF subjects (F508del/MF genotype), differentiated at an air-liquid interface
# T1 sequence (P13569 with tags, fused parts or gaps DEL508-508): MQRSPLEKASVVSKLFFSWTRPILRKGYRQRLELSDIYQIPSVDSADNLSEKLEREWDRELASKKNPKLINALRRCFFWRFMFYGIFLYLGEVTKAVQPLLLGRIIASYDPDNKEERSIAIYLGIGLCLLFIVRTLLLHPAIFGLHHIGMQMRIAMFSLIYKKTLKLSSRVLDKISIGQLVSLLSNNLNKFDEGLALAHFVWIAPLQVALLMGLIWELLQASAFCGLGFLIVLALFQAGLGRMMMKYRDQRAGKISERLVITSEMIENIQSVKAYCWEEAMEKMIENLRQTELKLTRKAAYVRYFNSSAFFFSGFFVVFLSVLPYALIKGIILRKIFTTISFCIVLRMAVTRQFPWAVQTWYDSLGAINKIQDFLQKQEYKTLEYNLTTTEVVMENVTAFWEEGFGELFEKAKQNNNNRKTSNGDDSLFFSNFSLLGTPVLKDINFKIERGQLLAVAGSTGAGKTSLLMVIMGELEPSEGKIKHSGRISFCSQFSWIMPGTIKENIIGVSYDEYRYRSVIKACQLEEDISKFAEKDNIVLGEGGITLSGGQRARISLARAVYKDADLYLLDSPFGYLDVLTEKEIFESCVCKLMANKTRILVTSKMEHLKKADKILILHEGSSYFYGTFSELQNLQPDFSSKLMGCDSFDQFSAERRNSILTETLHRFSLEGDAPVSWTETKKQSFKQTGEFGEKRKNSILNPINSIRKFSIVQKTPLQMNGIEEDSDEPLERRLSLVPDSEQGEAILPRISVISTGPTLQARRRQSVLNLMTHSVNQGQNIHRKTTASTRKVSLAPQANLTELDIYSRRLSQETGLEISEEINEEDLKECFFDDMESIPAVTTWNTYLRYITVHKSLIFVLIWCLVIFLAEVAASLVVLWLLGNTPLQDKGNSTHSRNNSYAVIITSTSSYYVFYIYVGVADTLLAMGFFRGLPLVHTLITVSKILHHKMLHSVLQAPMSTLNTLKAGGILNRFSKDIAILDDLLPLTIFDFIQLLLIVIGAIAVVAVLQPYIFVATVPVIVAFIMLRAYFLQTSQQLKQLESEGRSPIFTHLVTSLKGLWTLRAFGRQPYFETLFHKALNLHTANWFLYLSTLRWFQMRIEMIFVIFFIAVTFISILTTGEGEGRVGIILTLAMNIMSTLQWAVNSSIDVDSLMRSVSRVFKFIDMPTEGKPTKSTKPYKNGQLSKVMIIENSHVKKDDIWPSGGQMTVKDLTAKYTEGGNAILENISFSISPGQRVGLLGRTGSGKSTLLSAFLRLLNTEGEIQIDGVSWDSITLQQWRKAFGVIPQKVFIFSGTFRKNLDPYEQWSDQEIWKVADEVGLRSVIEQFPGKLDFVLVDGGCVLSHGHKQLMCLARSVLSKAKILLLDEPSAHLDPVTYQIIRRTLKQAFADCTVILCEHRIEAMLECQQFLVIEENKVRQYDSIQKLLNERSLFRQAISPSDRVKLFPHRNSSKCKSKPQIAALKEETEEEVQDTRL
# Protocol: (§1) Ussing chamber experiments were performed using human bronchial epithelial (HBE) cells derived from CF subjects heterozygous for F508del and a minimal function CFTR mutation (F508del/MF-HBE) and cultured as previously described (Neuberger T, Burton B, Clark H, Van Goor F Methods Mol Biol 2011:741:39-54). After four days the apical media was removed, and the cells were grown at an air liquid interface for >14 days prior to use.
# (§2) To isolate the CFTR-mediated short-circuit (ISC) current, F508del/MF-HBE grown on Costar® Snapwell™ cell culture inserts were mounted in an Ussing chamber and the transepithelial ISC was measured under voltage-clamp recording conditions (Vhold=0 mV) at 37° C. The basolateral solution contained (in mM) 145 NaCl, 0.83 K2HPO4, 3.3 KH2PO4, 1.2 MgCl2, 1.2 CaCl2, 10 Glucose, 10 HEPES (pH adjusted to 7.4 with NaOH) and the apical solution contained (in mM) 145 NaGluconate, 1.2 MgCl2, 1.2 CaCl2, 10 glucose, 10 HEPES (pH adjusted to 7.4 with NaOH) and 30 μM amiloride to block the epithelial sodium channel. Forskolin (20 μM) was added to the apical surface to activate CFTR, followed by apical addition of a CFTR inhibitor cocktail consisting of BPO, GlyH-101, and CFTR inhibitor 172 (each at 20 μM final assay concentration) to specifically isolate CFTR currents. The CFTR-mediated ISC (μA/cm^2) for each condition was determined from the peak forskolin response to the steady-state current following inhibition.
# (§3) The activity of the CFTR corrector compounds on the CFTR-mediated ISC was determined in Ussing chamber studies as described above. The F508del/MF-HBE cell cultures were either incubated with the corrector compounds at a range of concentrations in combination with 33 nM (6R,12R)-17-amino-12-methyl-6,15-bis(trifluoromethyl)-13,19-dioxa-3,4,18-triazatricyclo[12.3.1.12,5]nonadeca-1(18),2,4,14,16-pentaen-6-ol and 18 μM Tezacaftor or were incubated with the corrector compounds at a single fixed concentration of 1 μM in combination with 44 nM (6R,12R)-17-amino-12-methyl-6,15-bis(trifluoromethyl)-13,19-dioxa-3,4,18-triazatricyclo[12.3.1.12,5]nonadeca-1(18),2,4,14,16-pentaen-6-ol and 18 μM Tezacaftor for 18-24 hours at 37° C. and in the presence of 20% human serum. The concentration of corrector compounds with 44 nM or 33 nM (6R,12R)-17-amino-12-methyl-6,15-bis(trifluoromethyl)-13,19-dioxa-3,4,18-triazatricyclo[12.3.1.12,5]nonadeca-1(18),2,4,14,16-pentaen-6-ol and 18 μM Tezacaftor during the 18-24 hours incubations was kept constant throughout the Ussing chamber measurement of the CFTR-mediated ISC to ensure compounds were present throughout the entire experiment. The efficacy and potency of the putative F508del correctors was compared to that of the known Vertex corrector, (14S)-8-[3-(2-{Dispiro[2.0.2.1]heptan-7-yl}ethoxy)-1H-pyrazol-1-yl]-12,12-dimethyl-2λ^6-thia-3,9,11,18,23-pentaazatetracyclo[17.3.1.111,14.05,10]tetracosa-1(22),5,7,9,19(23),20-hexaene-2,2,4-trione, in combination with 18 μM Tezacaftor and 1 μM Ivacaftor.
# (§4) • Assay A: 0.1 μM to 25 μM, 6 concentrations • Assay B: 0.00001 μM to 25 μM, 12 concentrations • Assay C: 0.026 μM to 25 μM, 6 concentrations • Assay D: Activity at single concentration of 1 μM
# [2] = target: T1, CFTR (F508del/MF-HBE cells); assay: Ussing chamber assay of CFTR-mediated short-circuit currents, Assay C (0.026 μM to 25 μM, 6 concentrations); format: cell-based; conditions: with 33 nM potentiator and 18 μM Tezacaftor, 20% human serum; for Emax: read-out: C Max activity (%)
# Protocol: as §1, §2, §3, §4
D activity at 1 μM (%) [1],pEC50 [2],Emax [2] [%],Emax ([2]; 18-24 hours) [%],SMILES
,4.52 to 5.52,> 60,,Cc1cccc(C)c1-c1cc2nc(n1)NS(=O)(=O)c1cccc(c1)C(=O)N(Cc1cnc3oc(C(C)(C)C)cc3n1)[C@@H](CC1CC(F)(F)C1)CO2 [IV-57]
,> 6.00,> 60,,Cc1cccc(CC(C)C)c1-c1nc2nc(c1C)OC[C@@H](COC(C)C)N(Cc1cnc3cc(C(C)(C)C(F)(F)F)n(C)c3n1)C(=O)c1cccc(c1)S(=O)(=O)N2 [IV-101]
,> 6.00,> 60,,"Cc1cccc(CC(C)C)c1-c1nc2nc(c1C)OC[C@@H](COC(C)C)N(Cc1cnc3cc(C4(C(F)(F)F)CC4)n(C)c3n1)C(=O)c1cccc(c1)S(=O)(=O)N2 (atropisomer, axis not shown; (P)) [IV-76, (5P,11R)-7-methyl-6-[2-methyl-6-(2-methylpropyl)phenyl]-12-({5-methyl-6-[1-(trifluoromethyl)cyclopropyl]-5H-pyrrolo[2,3-b]pyrazin-3-yl}methyl)-11-[(propan-2-yloxy)methyl]-9-oxa-2λ^6-thia-3,5,12,19-tetraazatricyclo[12.3.1.1∧{4,8}]nonadeca-1(18),4(19),5,7,14,16-hexaene-2,2,13-trione]"
,4.52 to 5.52,> 60,,Cc1cccc(C)c1-c1cc2nc(n1)NS(=O)(=O)c1cccc(c1)C(=O)N(Cc1cnc3oc(C4CC4)cc3n1)[C@H](C[C@@H]1CCCCO1)CO2 [IV-86]
,5.52 to 6.00,> 60,,"Cc1cccc(CC(C)C)c1-c1nc2nc(c1C)OC[C@@H](CC(C)(C)C)N(Cc1ncc3cc(C4CC4)n(C)c3n1)C(=O)c1cccc(c1)S(=O)(=O)N2 (atropisomer, axis not shown) [IV-25]"
,> 6.00,> 60,,CCc1cccc(CC)c1-c1cc2nc(n1)NS(=O)(=O)c1cccc(c1)C(=O)N(Cc1cnc3cc(C(C)(C)C)n(C)c3n1)[C@H](CC(C)(C)C)CO2 [IV-66]
,> 6.00,> 60,,"Cc1cccc(C)c1-c1cc2nc(n1)NS(=O)(=O)c1cccc(c1)C(=O)N(Cc1cnc3cc(C(C)(C)C)n(C)c3n1)[C@H](C1CCCO1)CO2 (single isomer, unassigned) [IV-96]"
,4.52 to 5.52,> 60,,"Cc1cccc(C)c1-c1cc2nc(n1)NS(=O)(=O)c1cccc(c1)C(=O)N(Cc1cnc3oc([C@H](C)CO)cc3n1)[C@H](CC1(C)CC1)CO2 [IV-52, (11R)-6-(2,6-Dimethylphenyl)-12-[[6-[(1R)-2-hydroxy-1-methyl-ethyl]furo[2,3-b]pyrazin-2-yl]methyl]-11-[(1-methylcyclopropyl)methyl]-2,2-dioxo-9-oxa-2λ^6-thia-3,5,12,19-tetrazatricyclo[12.3.1.14,8]nonadeca-1(18),4(19),5,7,14,16-hexaen-13-one]"
,5.52 to 6.00,> 60,,Cc1cccc(C)c1-c1cc2nc(n1)NS(=O)(=O)c1cccc(c1)C(=O)N(Cc1cnc3oc(C4CC5(CC5)C4)cc3n1)[C@H](CC1(C)CC1)CO2 [IV-65]
,5.52 to 6.00,> 60,,Cc1cccc(C)c1-c1cc2nc(n1)NS(=O)(=O)c1cccc(c1)C(=O)N(Cc1cnc3oc(C(C)(C)C)cc3n1)[C@H](C[C@@H]1CCCO1)CO2 [IV-83]

# More lines, now with the values behind:
SMILES,D activity at 1 μM (%) [1],pEC50 [2],Emax [2] [%],Emax ([2]; 18-24 hours) [%]
Cc1cccc(C)c1-c1cc2nc(n1)NS(=O)(=O)c1cccc(c1)C(=O)N(Cc1cnc3nc(C(C)C)n(C)c3n1)[C@H](CC(C)(C)C)CO2 [Compound I-73],+++ (+++ is >60%),,,
Cc1cccc(C)c1-c1cc2nc(n1)NS(=O)(=O)c1cccc(c1)C(=O)N(Cc1cnc3oc(C(C)C)c(C#N)c3n1)[C@H](CC(C)(C)C)CO2 [Compound I-74],+++ (+++ is >60%),,,
"Cc1cccc(C)c1-c1cc2nc(n1)NS(=O)(=O)c1cccc(c1)C(=O)N(Cc1cnc3oc(C(C)C)c(N)c3n1)[C@H](CC1(C)CC1)CO2 [Compound I-237, (11R)-12-[(7-Amino-6-isopropyl-furo[2,3-b]pyrazin-2-yl)methyl]-6-(2,6-dimethylphenyl)-11-[(1-methylcyclopropyl)methyl]-2,2-dioxo-9-oxa-2λ^6-thia-3,5,12,19-tetrazatricyclo[12.3.1.14,8]nonadeca-1(18),4(19),5,7,14,16-hexaen-13-one]",+++ (+++ is >60%),,,
Cc1cccc(CC2CCCCC2)c1-c1nc2nc(c1C)OC[C@@H](CC(C)(C)C)N(Cc1cnc3oc(C4CC4)cc3n1)C(=O)c1cccc(c1)S(=O)(=O)N2 [Compound I-224],+++ (+++ is >60%),,,
"Cc1cccc(C)c1-c1cc2nc(n1)NS(=O)(=O)c1cccc(c1)C(=O)N(Cc1cnc3oc(C(C)C)cc3n1)[C@H](CC1CCCO1)CO2 (single isomer, unassigned) [Compound I-22]",+++ (+++ is >60%),,,
Cc1cccc(C)c1-c1nc2nc(c1C)OC[C@@H](CC(C)(C)C)N(Cc1cnc3cc(C4(C)CC4)n(C)c3n1)C(=O)c1cccc(c1)S(=O)(=O)N2 [Compound I-229],+++ (+++ is >60%),,,
"Cc1cccc(C)c1-c1cc2nc(n1)NS(=N)(=O)c1cccc(c1)C(=O)N(Cc1cnc3oc(C4CC4)cc3n1)[C@H](CC(C)(C)C)CO2 (stereo partly drawn) [Compound I-148, (11R)-12-[(6-cyclopropylfuro[2,3-b]pyrazin-2-yl)methyl]-6-(2,6-dimethylphenyl)-11-(2,2-dimethylpropyl)-2-imino-2-oxo-9-oxa-2λ^6-thia-3,5,12,19-tetrazatricyclo[12.3.1.14,8]nonadeca-1(18),4(19),5,7,14,16-hexaen-13-one]",+++ (+++ is >60%),,,
Cc1cccc(C)c1-c1cc2nc(n1)NS(=O)(=O)c1cccc(c1)C(=O)N(Cc1cnc3cc(C(C)C)n(C)c3n1)[C@H](CC1CCOCC1)CO2 [Compound I-29],++ (++ is 30-60%),,,
Cc1cccc(C)c1-c1cc2nc(n1)NS(=O)(=O)c1cccc(c1)C(=O)N(Cc1ncc3oc(C4CC4)cc3n1)[C@H](CC1(C)CC1)CO2 [Compound I-199],,4.52 to 5.52,,> 60
Cc1cccc(C)c1-c1cc2nc(n1)NS(=O)(=O)c1cccc(c1)C(=O)N(Cc1ncc3oc(C(C)(C)C)cc3n1)[C@H](CC13CC(C1)C3)CO2 [Compound I-251],,5.52 to 6.00,,> 60
"Cc1cccc(CC2CCCC2)c1-c1nc2nc(c1C)OC[C@@H](CC(C)(C)C)N(Cc1cnc3cc(C(C)C)n(C)c3n1)C(=O)c1cccc(c1)S(=O)(=O)N2 (atropisomer, axis not shown; (P)) [Compound I-196, (5P,11R)-6-[2-(cyclopentylmethyl)-6-methylphenyl]-11-(2,2-dimethylpropyl)-7-methyl-12-{[5-methyl-6-(propan-2-yl)-5H-pyrrolo[2,3-b]pyrazin-3-yl]methyl}-9-oxa-2λ^6-thia-3,5,12,19-tetraazatricyclo[12.3.1.1∧{4,8}]nonadeca-1(17),4(19),5,7,14(18),15-hexaene-2,2,13-trione]",,> 6.00,,> 60
Cc1cccc(C)c1-c1cc2nc(n1)NS(=O)(=O)c1cccc(c1)C(=O)N(Cc1cnc3oc(C(C)(C)CO)cc3n1)[C@H](CC1(C)CC1)CO2 [Compound I-112],,4.52 to 5.52,,> 60
Cc1cccc(C)c1-c1cc2nc(n1)NS(=O)(=O)c1cccc(c1)C(=O)N(Cc1ncc3oc(C4CC4)cc3n1)[C@H](CC13CC(C1)C3)CO2 [Compound I-209],,5.52 to 6.00,,> 60
